Test system: T1, TanRd
T1 construct: recombinant secreted from Yarrowia lipolytica, codon-optimised, XPR2 signal peptide, His-tag; ORF 1719 bp, 572 aa, predicted native signal peptide 1-19
Test: gallate ester hydrolysis, gallic acid release
Type: biochemical, Rhodotorula diobovata
Conditions: kinetic assay conditions not stated
Source text: gallate ester hydrolysis, gallic acid release on TanRd

Compound	Km
O=C(O[C@H]1Cc2c(O)cc(O)cc2O[C@@H]1c1ccc(O)c(O)c1)c1cc(O)c(O)c(O)c1 [CG, catechin gallate]	1670 µM
O=C(O[C@@H]1Cc2c(O)cc(O)cc2O[C@@H]1c1ccc(O)c(O)c1)c1cc(O)c(O)c(O)c1 [ECG, epicatechin gallate]	1650 µM
O=C(O[C@@H]1Cc2c(O)cc(O)cc2O[C@@H]1c1cc(O)c(O)c(O)c1)c1cc(O)c(O)c(O)c1 [EGCG, epigallocatechin gallate]	2190 µM
COC(=O)c1cc(O)c(O)c(O)c1 [MG, methyl gallate]	2310 µM
CCCOC(=O)c1cc(O)c(O)c(O)c1 [PG, propyl gallate]	1490 µM
